Reference: US20230348459A1, “PYRROLIDINE COMPOUND AND USE THEREOF” (SIMCERE PHARMACEUTICAL CO., LTD., priority 2020, published 2023)

Key:
[1] = molecular target: estrogen receptors in MCF7 cells (Homo sapiens (Human), UniProt P03372); test: Degradation of estrogen receptors in MCF7 cells (in-cell western); assay type: cell-based; conditions: for DC50: 24 hours treatment, read-out: ER level DC50; for Dmax: 24 hours, 0.1 µM fulvestrant = 100% degradation control, read-out: Maximum degradation rate
Sequence of estrogen receptors in MCF7 cells (P03372 whole entry): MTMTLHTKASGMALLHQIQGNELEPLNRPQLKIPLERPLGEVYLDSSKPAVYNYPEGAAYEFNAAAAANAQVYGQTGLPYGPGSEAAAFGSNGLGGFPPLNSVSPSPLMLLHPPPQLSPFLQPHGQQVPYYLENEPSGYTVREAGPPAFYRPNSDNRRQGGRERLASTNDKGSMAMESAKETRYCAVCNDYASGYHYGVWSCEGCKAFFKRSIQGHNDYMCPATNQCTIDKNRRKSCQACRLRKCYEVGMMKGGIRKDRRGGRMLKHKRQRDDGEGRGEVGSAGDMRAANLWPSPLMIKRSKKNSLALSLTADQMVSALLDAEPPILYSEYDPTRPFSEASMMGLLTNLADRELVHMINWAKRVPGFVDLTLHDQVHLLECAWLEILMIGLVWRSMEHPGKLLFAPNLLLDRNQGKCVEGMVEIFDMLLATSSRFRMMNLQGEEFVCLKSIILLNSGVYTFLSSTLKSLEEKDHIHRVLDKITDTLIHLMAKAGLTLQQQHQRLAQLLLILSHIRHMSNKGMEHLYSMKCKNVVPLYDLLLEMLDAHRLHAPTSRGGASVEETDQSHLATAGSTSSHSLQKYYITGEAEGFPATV
Protocol: The purpose of the experiment is to determine the degradation activity of the compounds of the present invention on endogenously expressed estrogen receptors in MCF7 cells, and to evaluate the activity of the compounds according to DC50 and maximum degradation efficiency.
MCF7 cells (ATCC, HTB-22) were cultured in DMEM (Gibco, 11995-065) complete medium containing 10% fetal bovine serum. On the first day of the experiment, MCF7 cells were inoculated in a 384-well plate at a density of 3000 cells/well using the complete medium, and cultured in a 37° C., 5% CO2 cell incubator. The compounds to be tested were dissolved in DMSO with a stock concentration of 10 mM, the solution was diluted with Echo 550 (Labcyte Inc.) and added to the cell culture plate. Each compound with the starting concentration for treatment of 100 nM was subjected to 3-fold gradient dilution with 9 concentration points. A blank control containing 0.5% DMSO was set, and double replicate wells as controls were set at each concentration point. The culture was cultured in a 37° C., 5% CO2 cell incubator for 24 hours. Paraformaldehyde was added to the cell culture medium in each cell culture well, and the final concentration of paraformaldehyde was about 3.7% to fix the cells. After the mixture was reacted for 30 minutes, the supernatant was discarded, and 50 µL of PBS was added to each well for washing once. The cells were treated with PBS containing 0.5% v/v Tween-20 for 30 minutes, and washed with PBS once. A blocking solution (PBS containing 5% BSA, 0.05% Tween-20) was added, and the mixture was incubated at room temperature for 1 hour. The blocking solution was removed, a mixture solution of primary antibodies (anti-ER mAb, Estrogen Receptor α (D8H8) Rabbit mAb, GST, # 8644S, 1 : 1000 dilution; anti-GAPDH mAb, GAPDH(D4C6R) Mouse mAb, GST, #97166S, 1 : 2000 dilution) was added, and the mixture was incubated at room temperature for 3 hours. The culture was washed with PBST (PBS containing 0.05% Tween-20) 3 times. Secondary antibodies for detection (800CW-goat anti-rabbit IgG, LI-COR, P/N: 926-32211, 1 : 1000 dilution; 680RD-goat anti-mouse IgG, LI-COR, #925-68070, 1 : 1000 dilution) were added, and the mixture was incubated at room temperature and in the dark for 45 minutes. After washing with PBST 3 times, the fluorescence signal of each well was read using Odyssey CLx, and the value of Chanel 800 (ER)/Chanel 680 (GAPDH) was calculated. The wells treated with 0.1 µM fulvestrant were used as the 100% degradation control, and the degradation rate at each concentration point was calculated. The data were analyzed and processed by XlLfit, and the degradation activity DC50 and the maximum degradation rate Imax of each compound were calculated.

[2] = Pharmacokinetic evaluation in mice; assay type: in vivo; conditions: CD-1 mice; for bioavailability: female, mouse, plasma, PO 10 mg/kg vs IV 1 mg/kg
Protocol: Six female CD-1 mice (20-30 g, 4-6 weeks) were randomized into 2 groups, 3 mice/group. Group 1 was given the test compound via tail vein injection at a dose of 1 mg/kg, and the vehicle was 5% DMSO in 10% HP-β-CD in water, and group 2 was given the test compound orally at a dose of 10 mg/kg, and the vehicle was 40% Tetraethylene Glycol (v/v), 7.5% Captisol (w/v) in water. Prior to the experiment, the animals were given food and water as usual. Before administration and 0.083 (only for the vein injection group), 0.25, 0.5, 1, 2, 4, 6, 8 and 24 h after administration, blood was sampled from the veins of the mice in each group. The whole blood sample collected was placed in a K2EDTA anticoagulation tube and centrifuged for 5 min (12,000 rpm, 4° C.) and then the plasma was taken for later detection.
10 µL of the mouse plasma sample was taken and 150 µL of acetonitrile solvent (wherein internal standard compound was contained) was added to precipitate proteins. After the mixture was vortexed for 5 min, centrifugation (14,000 rpm) was performed for 5 min. The supernatant was diluted 2-fold with water containing 0.1% (v/v) FA and injected into the LC-MS/MS system (AB Sciex Triple Quad 6500+) for the quantitative detection. A calibration standard curve was prepared in CD-1 mouse plasma along with quality control samples to determine the plasma concentration. For the 10x diluted samples, 2 µL of the sample was taken and 18 µL of blank plasma was added. After the mixture was vortexed for 0.5 min, 300 µL of acetonitrile solvent (wherein an internal standard compound was contained) was added to precipitate proteins. The other processing steps were identical to those for the samples not diluted.

C[C@@H]1Cc2c([nH]c3ccccc23)C(c2c(F)cc(N[C@H]3CCN(CCCF)C3)cc2F)N1CC(F)(F)F (stereo in doubt) [Example 4, (S)-N-(3,5-difluoro-4-((1S,3R)-3-methyl-2-(2,2,2-trifluoroethyl)-2,3,4,9-tetrahydro-1H-pyridino[3,4-b]indol-1-yl)phenyl)-1-(3-fluoropropyl)pyrrolidin-3-amine]
DC50 [1]: 40 pM
Dmax [1]: 99%
Drug exposure ([2]; IV 1 mg/kg): 639 ng·h/mL
Maximum drug concentration ([2]; IV 1 mg/kg): 78 ng/mL
Time of half drug elimination ([2]; IV 1 mg/kg): 21 h
Drug exposure ([2]; PO 10 mg/kg): 3853 ng·h/mL
Maximum drug concentration ([2]; PO 10 mg/kg): 222 ng/mL
Time of half drug elimination ([2]; PO 10 mg/kg): 19 h
Time to peak drug concentration ([2]; PO 10 mg/kg): 5 h
bioavailability [2]: 60%

C[C@@H]1Cc2c([nH]c3ccccc23)C(c2c(F)cc(N[C@H]3CCN(CCCF)C3)cc2F)N1CC(F)(F)CO (stereo in doubt) [Example 7, 3-((1S,3R)-1-(2,6-difluoro-4-(((S)-1-(3-fluoropropyl)pyrrolidin-3-yl)amino)phenyl)-3-methyl-3,4-dihydro-1H-pyridino [3,4-b]indole-2(9H)-yl)-2,2-difluoropropane-1-ol]
DC50 [1]: 60 pM
Drug exposure ([2]; IV 1 mg/kg): 879 ng·h/mL
Maximum drug concentration ([2]; IV 1 mg/kg): 259 ng/mL
Time of half drug elimination ([2]; IV 1 mg/kg): 5 h
Drug exposure ([2]; PO 10 mg/kg): 5447 ng·h/mL
Maximum drug concentration ([2]; PO 10 mg/kg): 555 ng/mL
Time of half drug elimination ([2]; PO 10 mg/kg): 4 h
Time to peak drug concentration ([2]; PO 10 mg/kg): 1 h
bioavailability [2]: 62%

C[C@@H]1Cc2c([nH]c3ccccc23)[C@@H](c2ccc(N[C@H]3CCN(CCCF)C3)cn2)N1CC(F)(F)F [Example 3, N-((S)-1-(3-fluoropropyl)pyrrolidin-3-yl)-6-((1S,3R)-3-methyl-2-(2,2,2-trifluoroethyl)-2,3,4,9-tetrahydro-1H-pyridino[3,4-b]indol-1-yl)pyridine-3-amine]
DC50 [1]: 150 pM
Dmax [1]: 104%
Drug exposure ([2]; IV 1 mg/kg): 414 ng·h/mL
Maximum drug concentration ([2]; IV 1 mg/kg): 98 ng/mL
Time of half drug elimination ([2]; IV 1 mg/kg): 13 h
Drug exposure ([2]; PO 10 mg/kg): 2804 ng·h/mL
Maximum drug concentration ([2]; PO 10 mg/kg): 219 ng/mL
Time of half drug elimination ([2]; PO 10 mg/kg): 9 h
Time to peak drug concentration ([2]; PO 10 mg/kg): 3 h
bioavailability [2]: 68%
